US20230167467A1, “METHODS AND COMPOSITIONS FOR THE PRODUCTION OF ISOBUTENE” (University of Alaska Anchorage, priority 2020, published 2023)

System: Engineered strains of E. coli
Type: cell-based
[1] = after solvent exposure, vs positive control

## C1=CCCCC1 [cyclohexene]
  expression of acid resistance genes (gad, adi families): downregulated
  expression of chaperone proteins groLS, spy, and dnaJK: highly upregulated
  expression of dihydroxyacetone kinase genes dhaKLM: upregulated
  expression of galactitol metabolism genes gatABD: upregulated
  expression of heat shock proteins and chaperones hslJORUV: increased
  expression of ibpAB and clpAB (protein protection and repair): increased
  expression of marABC (multiple antibiotic resistance): upregulated
  expression of nitrate reductase genes narGHJKP: upregulated
  expression of phage shock genes pspABCDE: highly upregulated
[1]
  change in expression of gene adiA: −1.87 ± 0.86
  change in expression of gene adiC: −1.64 ± 1.02
  change in expression of gene adiY: −2.84 ± 0.66
  change in expression of gene bhsA: 4.18 ± 0.60
  change in expression of gene bssR: 2.27 ± 0.44
  change in expression of gene bssS: 6.69 ± 0.84
  change in expression of gene clpA: 4.12 ± 0.63
  change in expression of gene clpB: 6.17 ± 0.69
  change in expression of gene clpP: 2.72 ± .59
  change in expression of gene coaA: −1.36 ± 0.88
  change in expression of gene coaD: 1.34 ± 0.90
  change in expression of gene cspA: −6.07 ± 0.58
  change in expression of gene cspB: −4.10 ± 1.31
  change in expression of gene cspC: −3.65 ± 0.94
  change in expression of gene cspD: 2.88 ± 0.57
  change in expression of gene cspE: −0.06 ± 0.63
  change in expression of gene cspF: −2.37 ± 1.04
  change in expression of gene dhaK: 3.72 ± 0.59
  change in expression of gene dhaL: 2.40 ± 0.62
  change in expression of gene dnaJ: 6.64 ± 0.69
  change in expression of gene dnaK: 5.96 ± 0.66
  change in expression of gene fabA: −1.13 ± 0.76
  change in expression of gene fabB: 1.01 ± 0.66
  change in expression of gene fabD: −1.64 ± 0.53
  change in expression of gene flgA: −0.73 ± 1.53
  change in expression of gene flgB: −3.31 ± 1.51
  change in expression of gene flgC: −4.46 ± 1.94
  change in expression of gene flgD: −3.72 ± 1.87
  change in expression of gene flgE: −2.82 ± 1.18
  change in expression of gene flgF: −2.88 ± 1.58
  change in expression of gene flgG: −2.77 ± 1.48
  change in expression of gene flgH: −2.14 ± 1.71
  change in expression of gene gabD: 0.11 ± 1.32
  change in expression of gene gabP: 1.19 ± 1.28
  change in expression of gene gabT: 0.31 ± 1.28
  change in expression of gene gadA: −0.52 ± 0.68
  change in expression of gene gadB: 0.17 ± 0.80
  change in expression of gene gadC: 1.28 ± 0.80
  change in expression of gene gadE: −3.51 ± 0.61
  change in expression of gene gadW: −2.17 ± 0.95
  change in expression of gene gadX: −3.69 ± 0.57
  change in expression of gene gadY: −4.01 ± 0.80
  change in expression of gene glpA: 7.06 ± 0.87
  change in expression of gene glpB: 4.64 ± 0.63
  change in expression of gene glpC: 5.02 ± 0.80
  change in expression of gene groL: 4.57 ± 0.57
  change in expression of gene groS: 4.63 ± 0.50
  change in expression of gene hchA: 2.06 ± 0.60
  change in expression of gene hslJ: 1.41 ± 0.66
  change in expression of gene hslO: 4.56 ± 0.64
  change in expression of gene hslR: 4.80 ± 0.65
  change in expression of gene hslU: 4.95 ± 0.55
  change in expression of gene hslV: 4.81 ± 0.61
  change in expression of gene ibpA: 9.90 ± 1.21
  change in expression of gene ibpB: 10.95 ± 1.50
  change in expression of gene lhgO: 1.38 ± 1.64
  change in expression of gene lipA: 0.42 ± 0.73
  change in expression of gene lipB: 0.61 ± 1.03
  change in expression of gene narG: 4.96 ± 0.65
  change in expression of gene narH: 4.45 ± 0.61
  change in expression of gene narI: 3.11 ± 0.92
  change in expression of gene narJ: 4.11 ± 0.68
  change in expression of gene narK: 3.31 ± 0.84
  change in expression of gene potA: −2.79 ± 0.81
  change in expression of gene potB: −1.05 ± 1.29
  change in expression of gene potC: −0.55 ± 1.19
  change in expression of gene pspA: 10.50 ± 0.55
  change in expression of gene pspB: 9.33 ± 0.68
  change in expression of gene rpoA: 0.17 ± 0.44
  change in expression of gene rpoB: 0.79 ± 0.40
  change in expression of gene rpoC: 1.15 ± 0.39
  change in expression of gene rpoD: 4.75 ± 0.70
  change in expression of gene rpoE: 1.44 ± 0.62
  change in expression of gene rpoH: 1.79 ± 0.52
  change in expression of gene rpoN: −1.54 ± 0.49
  change in expression of gene rpoS: 0.22 ± 0.47
  change in expression of gene rpoZ: −0.02 ± 0.53
  change in expression of gene spy: 3.95 ± 0.87
  change in expression of gene tatA: −1.95 ± 0.52
  change in expression of gene tatB: −1.59 ± 0.59
  change in expression of gene tatC: −1.25 ± 1.09
  change in expression of gene tatD: −1.56 ± 1.13
  change in expression of gene tatE: −0.97 ± 0.64
Vs control, Bon Ferroni corrected p-value<0.05
  number of genes with significant changes in expression: 530 genes
